Among the data in ChEMBL document CHEMBL1158796, “Hectochlorin and morpholine derivatives from the Thai sea hare, Bursatella leachii” (2005) are EC50 values, retold here.

Each structure is given as a SMILES string.

Type in all cases: functional
Details in all cases: read-out: ED50 (the source's name)

Experiment [1] concerns NCI-H187. As to the kind of experiment: Cytotoxicity against human NCI-H187 cells by SRB assay.
Experiment [2] can be described thus: Cytotoxicity against human BC cells by SRB assay.
The subject of experiment [3] is KB. As to the kind of experiment: Cytotoxicity against human KB cells by SRB assay.

In the case of `C[C@@H]1C(=O)O[C@@H](C(C)(C)O)c2nc(cs2)C(=O)OC(C)(C)[C@H](O)c2nc(cs2)C(=O)O[C@H]1CCCC(C)(Cl)Cl` [DEACETYLHECTOCHLORIN], the figures for the EC50 in experiment [1], in experiment [2] and in experiment [3] were 320 nM, 1030 nM and 310 nM, respectively.

For the compound `CC(=O)O[C@@H]1c2nc(cs2)C(=O)O[C@@H](CCCC(C)(Cl)Cl)[C@H](C)C(=O)O[C@@H](C(C)(C)O)c2nc(cs2)C(=O)OC1(C)C` [HECTOCHLORIN], the EC50 was 1200 nM in experiment [1] and 860 nM in experiment [3].
